In the supplement of paper PMC13380429:

Legend:
Conditions in all cases: 72 h
Caco-2 [1] = assay: relative viability EC50 (midpoint between 100% and the lowest measured viability); higher = less toxic
U2OS [2] = assay: as above
HepG2 [3] = assay: as above
Calu-3 [4] = assay: as above
Caco-2 [5] = assay: drug sensitivity score (DSS) for viability; higher = more toxic; extreme values may be limits of the assay
U2OS [6] = assay: as above
HepG2 [7] = assay: as above
Calu-3 [8] = assay: as above
Caco-2 [9] = assay: cell viability relative to DMSO; higher = less toxic
U2OS [10] = assay: as above
HepG2 [11] = assay: as above
Calu-3 [12] = assay: as above
Vero E6 [13] = assay: relative viability EC50 (midpoint between 100% and the lowest measured viability); higher = less toxic
Vero E6 [14] = assay: drug sensitivity score (DSS) for viability; higher = more toxic; extreme values may be limits of the assay
Vero E6 [15] = assay: cell viability relative to DMSO; higher = less toxic

| Compound | relative viability EC50 (Caco-2 [1]) [µM] | relative viability EC50 (U2OS [2]) [µM] | relative viability EC50 (HepG2 [3]) [µM] | relative viability EC50 (Calu-3 [4]) [µM] | drug sensitivity score (Caco-2 [5]) | drug sensitivity score (U2OS [6]) | drug sensitivity score (HepG2 [7]) | drug sensitivity score (Calu-3 [8]) | cell viability (Caco-2 [9]; 1 nM) [%] | cell viability (Caco-2 [9]; 10 nM) [%] | cell viability (Caco-2 [9]; 100 nM) [%] | cell viability (Caco-2 [9]; 1000 nM) [%] | cell viability (Caco-2 [9]; 10000 nM) [%] | cell viability (U2OS [10]; 1 nM) [%] | cell viability (U2OS [10]; 10 nM) [%] | cell viability (U2OS [10]; 100 nM) [%] | cell viability (U2OS [10]; 1000 nM) [%] | cell viability (U2OS [10]; 10000 nM) [%] | cell viability (HepG2 [11]; 1 nM) [%] | cell viability (HepG2 [11]; 10 nM) [%] | cell viability (HepG2 [11]; 100 nM) [%] | cell viability (HepG2 [11]; 1000 nM) [%] | cell viability (HepG2 [11]; 10000 nM) [%] | cell viability (Calu-3 [12]; 1 nM) [%] | cell viability (Calu-3 [12]; 10 nM) [%] | cell viability (Calu-3 [12]; 100 nM) [%] | cell viability (Calu-3 [12]; 1000 nM) [%] | cell viability (Calu-3 [12]; 10000 nM) [%] | relative viability EC50 (Vero E6 [13]) [µM] | drug sensitivity score (Vero E6 [14]) | cell viability (Vero E6 [15]; 1 nM) [%] | cell viability (Vero E6 [15]; 10 nM) [%] | cell viability (Vero E6 [15]; 100 nM) [%] | cell viability (Vero E6 [15]; 1000 nM) [%] | cell viability (Vero E6 [15]; 10000 nM) [%] |
| --- | --- | --- | --- | --- | --- | --- | --- | --- | --- | --- | --- | --- | --- | --- | --- | --- | --- | --- | --- | --- | --- | --- | --- | --- | --- | --- | --- | --- | --- | --- | --- | --- | --- | --- | --- |
| CCOC(CN1CCN(CC(C)C(=O)c2ccccc2)CC1)c1ccccc1 (stereo not drawn) [eprazinone] | > 10 | > 10 | > 10 | > 10 | 0 | 0 | 0 | 0 | 102 | 98.9 | 110 | 95.4 | 98.2 | 98.8 | 95.8 | 95.8 | 95.2 | 98.7 | 111 | 96.7 | 102 | 98.9 | 99.6 | 96 | 96.9 | 95.6 | 93 | 90.8 | – | – | – | – | – | – | – |
| CCNC(=O)[C@H]1O[C@@H](n2cnc3c(N)nc(NCCc4ccc(CCC(=O)O)cc4)nc32)[C@H](O)[C@@H]1O | > 10 | – | > 10 | > 10 | 0 | – | 0 | 0 | 99.1 | 101 | 92.1 | 96.4 | 97.3 | – | – | – | – | – | 96.2 | 102 | 116 | 97 | 96.7 | 95.7 | 99.2 | 99.5 | 113 | 98.9 | > 10 | 0 | 104 | 109 | 98.8 | 97.9 | 95.8 |
| C[C@@H]1O[C@@H](O[C@H]2[C@H](Oc3cc(O)c4c(c3)O[C@H](c3ccc(O)cc3)CC4=O)O[C@H](CO)[C@@H](O)[C@@H]2O)[C@H](O)[C@H](O)[C@H]1O [Naringin (Naringoside)] | > 10 | > 10 | > 10 | > 10 | 0 | 0 | 0 | 0 | 92.3 | 95.9 | 97.9 | 96.3 | 102 | 99.6 | 94.7 | 101 | 98.2 | 108 | 104 | 112 | 90 | 97.7 | 98.9 | 110 | 96.9 | 98.8 | 103 | 98.8 | – | – | – | – | – | – | – |
| Cc1c[nH]c2ncnc(N3CCC(CN)(C(=O)Nc4cccc(OC(=O)N(C)C)c4)CC3)c12 [LX7101] | > 10 | – | > 10 | > 10 | 0.9 | 2.2 | 0.1 | 0 | 88.3 | 97.8 | 98.9 | 96 | 82.4 | 98 | 97.4 | 98.5 | 94 | 70.9 | 99.8 | 99.2 | 101 | 102 | 86.4 | 82.4 | 99.4 | 110 | 125 | 114 | > 10 | 0 | 93.2 | 100 | 92.4 | 102 | 112 |
